Patent US10738028B2, “Spiro three-membered ring, spiro five-membered ring peptide deformylase inhibitor and use thereof in antibacteria and anti-tumor” (priority 2016, dated 2020)
In brackets after ≈: the same amount, converted by molar mass.

Key:
Format in all cases: cell-based
[1] = test system: HCT-116 colorectal cancer cell line; assay: CCK-8 proliferation inhibition; settings: Homo sapiens, HCT-116, 72 h, concentration of 30 μM; 72 hours; CCK-8; read-out: HCT116 inhibition rate/%
Method: (1) HCT-116 colorectal cancer cell line, A549 lung cancer cell line, MGC-803 gastric cancer cell line, BEL-7402 liver cancer cell line, Jurkat T cell leukemia cell line, HL60 acute myeloid leukemia cell line, Hela cervical cancer cell line, MCF-7 breast cancer cell line, PC3 prostate cancer cell line and SAOS-2 osteosarcoma cell line were made into single cell suspension, 180 μL of which was inoculated into 96-well culture plate, which was cultured overnight in CO2 incubator (37° C., 5% CO2, 95% air).
(2) Each of the spiro three-membered ring, spiro five membered ring peptide deformylase inhibitors was dissolved in DMSO, and was further formulated into drug solution with required different final concentration using corresponding cell culture medium. The drug solutions were added to the above cells respectively (20 μL/well), with the control group added with 1‰ DMSO, and cultured in a CO2 incubator for 72 hours.
(3) After incubation for 72 hours, the culture solution was decanted, and 100 μL of 1:10 diluted CCK-8 solution was added.
Wherein, in step (1), the concentration of the single cell suspension was 2000 cells/well.
Wherein, in step (2), HCT-116 cells were cultured in McCoy's 5A medium (containing 10% newborn bovine serum, 1% double antibody); A549 and PC3 cells were cultured in F12 medium (containing 10% newborn bovine serum, 1% double antibody); MGC-803, BEL-7402, SAOS-2, Jurkat and HL60 cells were cultured in 1640 medium (containing 10% newborn bovine serum, 1% double antibody); and MCF-7 and Hela cells were cultured in DMEM high glucose medium (containing 10% newborn bovine serum, 1% double antibody).

[2] = test system: Escherichia coli (including ESBLs, non-ESBLs); assay: MIC, two-fold agar dilution (CLSI), clinical isolates
Description: (§1) 1. The invention adopts the two-fold agar dilution method recommended by the operating procedure of antimicrobial susceptibility testing set by American Clinical and Laboratory Standards Institute (CLSI) to determine the Minimum Inhibitory Concentration (MIC) of the test samples against the tested strains.

[3] = test system: Enterococcus faecalis (EFA); assay: as above
Description: as §1

[4] = test system: methicillin-resistant Staphylococcus epidermidis (MRSE); assay: as above
Description: as §1

[5] = test system: Moraxella catarrhalis (BCA); assay: as above
Description: as §1

[6] = test system: Streptococcus pneoumoniae (SPN); assay: as above
Description: as §1

[7] = test system: Enterococcus faecium (EFM); assay: as above
Description: as §1

[8] = test system: methicillin-sensitive Staphylococcus epidermidis (MSSE); assay: as above
Description: as §1

[9] = test system: methicillin-resistant Staphylococcus aureus (MRSA); assay: as above
Description: as §1

[10] = test system: methicillin-sensitive Staphylococcus aureus (MSSA); assay: as above
Description: as §1

## CCCC[C@H](CN(O)C=O)C(=O)N1CC2(CC2)C[C@H]1C(=O)NC1CC1 [Example 18]
[1]
  inhibition at 30 µM: 5%
[2]; strain ECO+ 15-1
  MIC (anti-bacterial activity): 32 µg/mL (≈ 91.1 µM)
[2]; strain ECO+ 15-2
  MIC (anti-bacterial activity): 32 µg/mL (≈ 91.1 µM)
[2]; strain ECO+ 15-3
  MIC (anti-bacterial activity): 32 µg/mL (≈ 91.1 µM)
[2]; strain ECO+ 15-4
  MIC (anti-bacterial activity): 32 µg/mL (≈ 91.1 µM)
[2]; strain ECO− 15-1
  MIC (anti-bacterial activity): > 32 µg/mL
[2]; strain ECO− 15-2
  MIC (anti-bacterial activity): > 32 µg/mL
[2]; strain ECO− 15-3
  MIC (anti-bacterial activity): 32 µg/mL (≈ 91.1 µM)
[2]; strain ECO− 15-4
  MIC (anti-bacterial activity): 32 µg/mL (≈ 91.1 µM)
[3]; strain EFA 15-1
  MIC (anti-bacterial activity): 32 µg/mL (≈ 91.1 µM)
[3]; strain EFA 15-2
  MIC (anti-bacterial activity): 32 µg/mL (≈ 91.1 µM)
[3]; strain EFA 15-3
  MIC (anti-bacterial activity): 8 µg/mL (≈ 22.8 µM)
[3]; strain EFA 15-4
  MIC (anti-bacterial activity): 32 µg/mL (≈ 91.1 µM)
[3]; strain EFA 15-5
  MIC (anti-bacterial activity): 32 µg/mL (≈ 91.1 µM)
[3]; strain EFA 15-6
  MIC (anti-bacterial activity): 32 µg/mL (≈ 91.1 µM)
[3]; strain EFA 15-9
  MIC (anti-bacterial activity): 32 µg/mL (≈ 91.1 µM)
[4]; strain MRSE 15-1
  MIC (anti-bacterial activity): 2 µg/mL (≈ 5.69 µM)
[4]; strain MRSE 15-2
  MIC (anti-bacterial activity): 2 µg/mL (≈ 5.69 µM)
[4]; strain MRSE 15-3
  MIC (anti-bacterial activity): 2 µg/mL (≈ 5.69 µM)
[4]; strain MRSE 15-7
  MIC (anti-bacterial activity): 2 µg/mL (≈ 5.69 µM)
[5]; strain BCA 14-1
  MIC (anti-bacterial activity): 16 µg/mL (≈ 45.5 µM)
[5]; strain BCA 14-4
  MIC (anti-bacterial activity): 8 µg/mL (≈ 22.8 µM)
[5]; strain BCA 14-5
  MIC (anti-bacterial activity): 4 µg/mL (≈ 11.4 µM)
[5]; strain BCA 14-6
  MIC (anti-bacterial activity): 16 µg/mL (≈ 45.5 µM)
[5]; strain BCA 14-7
  MIC (anti-bacterial activity): 4 µg/mL (≈ 11.4 µM)
[5]; strain BCA 14-8
  MIC (anti-bacterial activity): 4 µg/mL (≈ 11.4 µM)
[5]; strain BCA 14-10
  MIC (anti-bacterial activity): 4 µg/mL (≈ 11.4 µM)
[6]; strain SPN 16-2
  MIC (anti-bacterial activity): 16 µg/mL (≈ 45.5 µM)
[6]; strain SPN 16-4
  MIC (anti-bacterial activity): 4 µg/mL (≈ 11.4 µM)
[7]; strain EFM 15-1
  MIC (anti-bacterial activity): 8 µg/mL (≈ 22.8 µM)
[7]; strain EFM 15-2
  MIC (anti-bacterial activity): 8 µg/mL (≈ 22.8 µM)
[7]; strain EFM 15-3
  MIC (anti-bacterial activity): 2 µg/mL (≈ 5.69 µM)
[7]; strain EFM 15-4
  MIC (anti-bacterial activity): 8 µg/mL (≈ 22.8 µM)
[7]; strain EFM 15-5
  MIC (anti-bacterial activity): 4 µg/mL (≈ 11.4 µM)
[7]; strain EFM 15-6
  MIC (anti-bacterial activity): 8 µg/mL (≈ 22.8 µM)
[8]; strain MSSE 15-3
  MIC (anti-bacterial activity): 2 µg/mL (≈ 5.69 µM)
[8]; strain MSSE 15-4
  MIC (anti-bacterial activity): 2 µg/mL (≈ 5.69 µM)
[8]; strain MSSE 15-5
  MIC (anti-bacterial activity): 2 µg/mL (≈ 5.69 µM)
[8]; strain MSSE 15-6
  MIC (anti-bacterial activity): 2 µg/mL (≈ 5.69 µM)
[9]; strain MRSA 15-1
  MIC (anti-bacterial activity): 2 µg/mL (≈ 5.69 µM)
[9]; strain MRSA 15-2
  MIC (anti-bacterial activity): 2 µg/mL (≈ 5.69 µM)
[9]; strain MRSA 15-3
  MIC (anti-bacterial activity): 2 µg/mL (≈ 5.69 µM)
[9]; strain MRSA 15-4
  MIC (anti-bacterial activity): 2 µg/mL (≈ 5.69 µM)
[10]; strain MSSA 15-3
  MIC (anti-bacterial activity): 2 µg/mL (≈ 5.69 µM)
[10]; strain MSSA 15-4
  MIC (anti-bacterial activity): 2 µg/mL (≈ 5.69 µM)
[10]; strain MSSA 15-5
  MIC (anti-bacterial activity): 2 µg/mL (≈ 5.69 µM)
[10]; strain MSSA 15-6
  MIC (anti-bacterial activity): 2 µg/mL (≈ 5.69 µM)
